Like-named read-outs stand apart in the source and are kept apart here. One block for each compound: values may come before it.
What was measured:
[1] = molecular target: T1, human thyroid receptor alpha ligand-binding domain (LBD) (Homo sapiens, UniProt P10827); assay: TR-FRET thyroid receptor alpha coactivator assay (THR biochemical assay, Assay 1); details: for EC50: Table 4, THR-alpha, read-out: Activity category Assay 1 (EC50, THR-alpha agonist activity); for Emax: read-out: Activity category Assay 1 THRα (Emax)
T1 construct: purchased Invitrogen
T1 sequence (P10827 163-410 isoform P10827-2 limits assumed, other chains not shown): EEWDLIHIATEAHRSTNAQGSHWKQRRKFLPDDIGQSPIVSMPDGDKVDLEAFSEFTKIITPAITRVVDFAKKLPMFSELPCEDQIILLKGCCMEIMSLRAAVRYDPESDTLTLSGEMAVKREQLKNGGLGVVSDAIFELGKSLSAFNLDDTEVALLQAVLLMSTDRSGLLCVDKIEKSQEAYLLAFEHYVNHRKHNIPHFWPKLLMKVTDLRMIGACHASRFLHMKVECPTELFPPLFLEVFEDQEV
From the text: (§1) The TR-FRET thyroid receptor beta coactivator assay was used with slight, optimized modifications of the manufacturer's protocol (Invitrogen). The assay uses a terbium-labeled anti-GST antibody, a glutathione-S-transferase (GST) tagged human thyroid receptor, beta or alpha, ligand-binding domain (LBD), and a fluorescein labeled SRC2-2 coactivator peptide. […] The energy transfer is detected as an increase in the fluorescence emission of the fluorescein acceptor, and a decrease in the fluorescence emission of the terbium donor. The assay is performed in a 384-well black plate in a final volume of 20 μL. Serial dilution of various test agonists was performed in DMSO (1% final DMSO concentration) and added to the test plate. Thyroid receptor beta LBD is added to the plate at a final concentration of 1 nM, followed by the mixture of the fluorescein labeled SRC2-2 coactivator peptide, and the terbium-labeled anti-GST antibody at final concentrations of 200 nM and 2 nM respectively. The assay is incubated for 1 hr at rt protected from light.

[2] = molecular target: T2, human thyroid receptor beta ligand-binding domain (LBD) (Homo sapiens, UniProt P10828); assay: TR-FRET thyroid receptor beta coactivator assay (THR biochemical assay, Assay 1); details: for EC50: THR-beta, TR-FRET coactivator assay, read-out: Activity category Assay 1 (EC50, THR-beta agonist); for Emax: read-out: Activity category Assay 1 THRβ (Emax)
T2 construct: purchased Invitrogen
T2 sequence (P10828 217-461 limits assumed): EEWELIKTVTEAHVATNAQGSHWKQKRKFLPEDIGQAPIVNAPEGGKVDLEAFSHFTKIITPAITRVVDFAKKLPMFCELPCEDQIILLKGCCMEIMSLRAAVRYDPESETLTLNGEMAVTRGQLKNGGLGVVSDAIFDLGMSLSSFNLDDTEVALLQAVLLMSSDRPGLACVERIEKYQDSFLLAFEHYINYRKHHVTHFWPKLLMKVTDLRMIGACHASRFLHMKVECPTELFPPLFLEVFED
From the text: as §1

Compound: N#Cc1nn(-c2cc(Cl)c(Oc3ccc4[nH]cc(-c5ccccc5)c4c3)c(Cl)c2)c(=O)[nH]c1=O [Compound 7, 2-[3,5-dichloro-4-[(3-phenyl-1H-indol-5-yl)oxy]phenyl]-3,5-dioxo-4H-1,2,4-triazine-6-carbonitrile]
EC50 [1]: > 25 µM
Emax ([1]; Table 5, THRα): < 50%
EC50 [2]: > 25 µM
Emax [2]: < 50%

Compound: Cc1cncc(-c2cc(=O)[nH]nc2Oc2c(Cl)cc(-n3ncc(=O)[nH]c3=O)cc2Cl)c1 [Compound 138]
EC50 [1]: > 25 µM
Emax ([1]; Table 5, THRα): < 50%
EC50 [2]: > 25 µM
Emax ([2]; Table 5, Assay 1, THRβ): < 50%

Compound: Nc1nn(-c2cc(Cl)c(Oc3cc(C4Cc5ccccc54)c(=O)[nH]n3)c(Cl)c2)c(=O)[nH]c1=O (single isomer, unassigned) [Compound 166, 6-amino-2-(4-((5-(bicyclo[4.2.0]octa-1(6),2,4-trien-7-yl)-6-oxo-1,6-dihydropyridazin-3-yl)oxy)-3,5-dichlorophenyl)-1,2,4-triazine-3,5(2H,4H)-dione]
EC50 [1]: > 25 µM
Activity category Assay 1 THRα (Emax) ([1]; Table 5, THRα): C (Emax<50%)
EC50 [2]: 0.05 to 0.25 µM
Activity category Assay 1 THRβ (Emax) ([2]; Table 5, Assay 1, THRβ): C (Emax<50%)

Compound: CC(c1ccccc1)c1c[nH]c2ccc(Oc3c(Cl)cc(-n4nc(C#N)c(=O)[nH]c4=O)cc3Cl)cc12 (stereo not shown) [Compound 6, 2-(3,5-dichloro-4-[[3-(1-phenylethyl)-1H-indol-5-yl]oxy]phenyl)-3,5-dioxo-4H-1,2,4-triazine-6-carbonitrile]
EC50 [1]: > 25 µM
Emax ([1]; Table 5, THRα): < 50%
EC50 [2]: > 25 µM
Emax ([2]; Table 5, Assay 1, THRβ): < 50%

Compound: Cc1cccc(-c2cc(=O)[nH]nc2Oc2c(Cl)cc(-n3ncc(=O)[nH]c3=O)cc2Cl)c1 [Compound 140]
EC50 [1]: > 25 µM
Emax ([1]; Table 5, THRα): < 50%
EC50 [2]: > 25 µM
Emax ([2]; Table 5, Assay 1, THRβ): < 50%

Compound: Nc1nn(-c2cc(Cl)c(Oc3n[nH]c(=O)cc3-c3cccc(Cl)c3)c(Cl)c2)c(=O)[nH]c1=O [Compound 68-A, 6-amino-2-(3,5-dichloro-4-((4-(3-chlorophenyl)-6-oxo-1,6-dihydropyridazin-3-yl)oxy)phenyl)-1,2,4-triazine-3,5(2H,4H)-dione]
EC50 [1]: > 25 µM
Emax ([1]; Table 5, THRα): < 50%
EC50 [2]: > 25 µM
Emax ([2]; Table 5, Assay 1, THRβ): < 50%

Compound: Nc1nn(-c2cc(Cl)c(Oc3cc(-c4ccc5nnccc5c4)c(=O)[nH]n3)c(Cl)c2)c(=O)[nH]c1=O [Compound 108]
EC50 [1]: > 25 µM
Emax ([1]; Table 5, THRα): < 50%
EC50 [2]: > 25 µM
Emax ([2]; Table 5, Assay 1, THRβ): < 50%

Compound: Nc1nn(-c2cc(Cl)c(Oc3n[nH]c(=O)cc3-c3ccn4nccc4c3)c(Cl)c2)c(=O)[nH]c1=O [Compound 125]
EC50 [1]: > 25 µM
Emax ([1]; Table 5, THRα): < 50%
EC50 [2]: 1 to 25 µM
Emax ([2]; Table 5, Assay 1, THRβ): < 50%

Compound: N#Cc1nn(-c2cc(Cl)c(Oc3ccc4[nH]cc(C(=O)N5CCc6ccccc6C5)c4c3)c(Cl)c2)c(=O)[nH]c1=O [Compound 22]
EC50 [1]: > 25 µM
Emax ([1]; Table 5, THRα): < 50%
EC50 [2]: > 25 µM
Emax ([2]; Table 5, Assay 1, THRβ): < 50%

Compound: Nc1nn(-c2cc(Cl)c(Oc3n[nH]c(=O)cc3-c3cnc4ccccc4c3)c(Cl)c2)c(=O)[nH]c1=O [Compound 133]
EC50 [1]: > 25 µM
Emax ([1]; Table 5, THRα): < 50%
EC50 [2]: 0.25 to 1 µM
Emax ([2]; Table 5, Assay 1, THRβ): < 50%

More lines, now with the values ahead:

EC50 [1]: 0.25 to 1 µM
Emax ([1]; Table 5, THRα): < 50%
EC50 [2]: < 0.05 µM
Emax ([2]; Table 5, Assay 1, THRβ): < 50%
Compound: CC(C)[C@@H](C)c1cc(Oc2c(Cl)cc(-n3nc(N)c(=O)[nH]c3=O)cc2Cl)n[nH]c1=O [Compound 169]

EC50 [1]: > 25 µM
Emax ([1]; Table 5, THRα): < 50%
EC50 [2]: > 25 µM
Emax ([2]; Table 5, Assay 1, THRβ): < 50%
Compound: Cc1cc(-c2cc(=O)[nH]nc2Oc2c(Cl)cc(-n3ncc(=O)[nH]c3=O)cc2Cl)ccn1 [Compound 142]

EC50 [1]: > 25 µM
Emax ([1]; Table 5, THRα): < 50%
EC50 [2]: > 25 µM
Emax ([2]; Table 5, Assay 1, THRβ): < 50%
Compound: Nc1nn(-c2cc(Cl)c(Oc3cc(-c4ccn5cncc5c4)c(=O)[nH]n3)c(Cl)c2)c(=O)[nH]c1=O [Compound 126]

EC50 [1]: 0.05 to 0.25 µM
Emax ([1]; Table 5, THRα): 50 to 75%
EC50 [2]: < 0.05 µM
Emax ([2]; Table 5, Assay 1, THRβ): < 50%
Compound: C[C@H](c1cc(Oc2c(Cl)cc(-n3nc(N)c(=O)[nH]c3=O)cc2Cl)n[nH]c1=O)C1CCC1 [Compound 168]

EC50 [1]: > 25 µM
Emax ([1]; Table 5, THRα): < 50%
EC50 [2]: > 25 µM
Emax ([2]; Table 5, Assay 1, THRβ): < 50%
Compound: Nc1nn(-c2cc(Cl)c(Oc3n[nH]c(=O)cc3-c3ccn4cncc4c3)c(Cl)c2)c(=O)[nH]c1=O [Compound 127]

EC50 [1]: 1 to 25 µM
Emax ([1]; Table 5, THRα): < 50%
EC50 [2]: 1 to 25 µM
Emax ([2]; Table 5, Assay 1, THRβ): < 50%
Compound: N#C[C@@H]1CC[C@H]1c1cc(Oc2c(Cl)cc(-n3nc(N)c(=O)[nH]c3=O)cc2Cl)n[nH]c1=O (relative stereo) [Compound 105]

EC50 [1]: 0.25 to 1 µM
Emax ([1]; Table 5, THRα): < 50%
EC50 [2]: < 0.05 µM
Emax ([2]; Table 5, Assay 1, THRβ): < 50%
Compound: Nc1nn(-c2cc(Cl)c(Oc3cc(C4Cc5ccccc54)c(=O)[nH]n3)c(Cl)c2)c(=O)[nH]c1=O (single isomer, unassigned) [Compound 165, 6-amino-2-(4-((5-(bicyclo[4.2.0]octa-1(6),2,4-trien-7-yl)-6-oxo-1,6-dihydropyridazin-3-yl)oxy)-3,5-dichlorophenyl)-1,2,4-triazine-3,5(2H,4H)-dione]

EC50 [1]: > 25 µM
Emax ([1]; Table 5, THRα): < 50%
EC50 [2]: > 25 µM
Emax ([2]; Table 5, Assay 1, THRβ): < 50%
Compound: Nc1nn(-c2cc(Cl)c(Oc3n[nH]c(=O)cc3-c3cccc(F)c3)c(Cl)c2)c(=O)[nH]c1=O [Compound 69-A, 6-amino-2-(3,5-dichloro-4-((4-(3-fluorophenyl)-6-oxo-1,6-dihydropyridazin-3-yl)oxy)phenyl)-1,2,4-triazine-3,5(2H,4H)-dione]

EC50 [1]: 0.25 to 1 µM
Emax ([1]; Table 5, THRα): < 50%
EC50 [2]: 0.25 to 1 µM
Emax ([2]; Table 5, Assay 1, THRβ): > 75%
Compound: CSCc1nn(-c2cc(Cl)c(Oc3cc(C(C)C)c(=O)[nH]n3)c(Cl)c2)c(=O)[nH]c1=O [Compound 33, 2-[3,5-dichloro-4-[(5-isopropyl-6-oxo-1H-pyridazin-3-yl)oxy]phenyl]-6-[(methylsulfanyl)-methyl]-4H-1,2,4-triazine-3,5-dione]

EC50 [1]: 1 to 25 µM
Emax ([1]; Table 5, THRα): < 50%
EC50 [2]: 1 to 25 µM
Emax ([2]; Table 5, Assay 1, THRβ): < 50%
Compound: O=c1cc(-c2ccc3sccc3c2)c(Oc2c(Cl)cc(-n3ncc(=O)[nH]c3=O)cc2Cl)n[nH]1 [Compound 136]

EC50 [1]: 1 to 25 µM
Emax ([1]; Table 5, THRα): < 50%
EC50 [2]: 1 to 25 µM
Emax ([2]; Table 5, Assay 1, THRβ): < 50%
Compound: Nc1nn(-c2cc(Cl)c(Oc3cc(-c4ccc5ccnn5c4)c(=O)[nH]n3)c(Cl)c2)c(=O)[nH]c1=O [Compound 122]

EC50 [1]: > 25 µM
Emax ([1]; Table 5, THRα): < 50%
EC50 [2]: > 25 µM
Emax ([2]; Table 5, Assay 1, THRβ): < 50%
Compound: O=c1cnn(-c2cc(Cl)c(Oc3cc(-c4ccc5sccc5c4)c(=O)[nH]n3)c(Cl)c2)c(=O)[nH]1 [Compound 135]

EC50 [1]: < 0.05 µM
Emax ([1]; Table 5, THRα): < 50%
EC50 [2]: < 0.05 µM
Emax ([2]; Table 5, Assay 1, THRβ): < 50%
Compound: Cc1cc(-n2nc(C#N)c(=O)[nH]c2=O)cc(C)c1Cc1ccc2c(c1)C1(CCC1)C(=O)N2 [Compound 153, 2-(3,5-Dimethyl-4-((2′-oxospiro[cyclobutane-1,3′-indolin]-5′-yl)methyl)phenyl)-3,5-dioxo-2,3,4,5-tetrahydro-1,2,4-triazine-6-carbonitrile]

EC50 [1]: 1 to 25 µM
Emax ([1]; Table 5, THRα): < 50%
EC50 [2]: 1 to 25 µM
Emax ([2]; Table 5, Assay 1, THRβ): < 50%
Compound: CCn1nc(-c2cc(Cl)c(Oc3cc(C(C)C)c(=O)[nH]n3)c(Cl)c2)c(=O)[nH]c1=O [Compound 23]

EC50 [1]: 1 to 25 µM
Emax ([1]; Table 5, THRα): < 50%
EC50 [2]: 1 to 25 µM
Emax ([2]; Table 5, Assay 1, THRβ): < 50%
Compound: Nc1nn(-c2cc(Cl)c(Oc3n[nH]c(=O)cc3-c3cc4ccccn4n3)c(Cl)c2)c(=O)[nH]c1=O [Compound 131]
